One experiment addresses T1, GST-tagged truncated human mutant G2019S LRRK2 (Homo sapiens, UniProt Q5S007, G2019S).
T1 construct: GST-tagged truncated human mutant G2019S LRRK2; purchased Life Technologies Corporation (Carlsbad, CA)
The experiment can be described thus: LRRK2 G2019S Km ATP LanthaScreen assay. It is filed as biochemical. The conditions noted are these: 134 μM ATP (Km ATP), LRRKtide substrate, mean of several tests. The method, then: Unless otherwise noted, all reactions are magnetically stirred. Unless otherwise noted, when diethyl ether is used in the experiments described below, it is Fisher ACS certified material and is stabilized with BHT. Unless otherwise noted, “concentrated” and/or “solvent removed under reduced pressure” means evaporating the solvent from a solution or mixture using a rotary evaporator or vacuum pump. Unless otherwise noted, flash chromatography is carried out on a Teledyne Isco (Lincoln, NE), Analogix (Burlington, WI), or Biotage (Stockholm, SWE) automated chromatography system using a commercially available cartridge as the column. Columns may be purchased from Teledyne Isco, Analogix, Biotage, Varian (Palo Alto, CA), or Supelco (Bellefonte, PA) and are usually filled with silica gel as the stationary phase. Reverse phase prep-HPLC conditions, where used, can be found at the end of each experimental section. Aqueous solutions were concentrated on a Genevac (Ipswich, ENG) or by freeze-drying/lyophilization. Unless otherwise noted, all LRRK2 pIC50 data presented in tables refers to the LRRK2 G2019S Km ATP LanthaScreen™ assay (Life Technologies Corp., Carlsbad, CA) that is described in the Biological Assay section.
Biological Assay: LRRK2 Km ATP LanthaScreen™ Assay
The LRRK2 kinase activity reported herein as IC50 values was determined with LanthaScreen™ technology from Life Technologies Corporation (Carlsbad, CA) using GST-tagged truncated human mutant G2019S LRRK2 in the presence of the fluorescein-labeled peptide substrate LRRKtide, also from Life Technologies. The data presented for the Km ATP LanthaScreen™ Assay represents mean IC50 values based on several test results and may have reasonable deviations depending on the specific conditions and reagents used. Assays were performed in the presence of 134 μM ATP (Km ATP). Upon completion, the assay was stopped and phosphorylated substrate detected with a terbium (Tb)-labeled anti-pERM antibody (cat. no. PV4898). The compound dose response was prepared by diluting a 10 mM stock of compound to a maximum concentration of 9.99 μM in 100% dimethylsulfoxide followed by custom fold serial dilution in dimethylsulfoxide nine times. Twenty nanoliters of each dilution was spotted via a Labcyte Echo onto a 384-well black-sided plate (Corning 3575) followed by 15 μl of a 1.25 nM enzyme solution in 1× assay buffer (50 mM Tris pH 8.5, 10 mM MgCl2, 0.01% Brij-35, 1 mM EGTA, 2 mM dithiothreitol, 0.05 mM sodium orthovanadate). Following a 15-minute incubation at room temperature, the kinase reaction was started with the addition of 5 μl of 400 nM fluorescein-labeled LRRKtide peptide substrate and 134 μM ATP solution in 1× assay buffer. The reaction was allowed to progress at ambient temperature for 90 minutes. The reaction was then stopped by the addition of 20 μl of TR-FRET Dilution Buffer (Life Technologies, Carlsbad, CA) containing 2 nM Tb-labeled anti-phospho LRRKtide antibody and 10 mM EDTA (Life Technologies, Carlsbad, CA). After an incubation of 1 hour at room temperature, the plate was read on an EnVision multimode plate reader (Perkin Elmer, Waltham, MA) with an excitation wavelength of 337 nm (Laser) and a reading emission at both 520 and 495 nm. Compound IC50s were interpolated from nonlinear regression best fits of the log of the final compound concentration, plotted as a function of the 520/495-nm emission ratio using Activity base. Abase uses a 4 parameter (4P) logistic fit based on the Levenberg-Marquardt algorithm.
T1 sequence (Q5S007 970-2527 G2019S limits assumed): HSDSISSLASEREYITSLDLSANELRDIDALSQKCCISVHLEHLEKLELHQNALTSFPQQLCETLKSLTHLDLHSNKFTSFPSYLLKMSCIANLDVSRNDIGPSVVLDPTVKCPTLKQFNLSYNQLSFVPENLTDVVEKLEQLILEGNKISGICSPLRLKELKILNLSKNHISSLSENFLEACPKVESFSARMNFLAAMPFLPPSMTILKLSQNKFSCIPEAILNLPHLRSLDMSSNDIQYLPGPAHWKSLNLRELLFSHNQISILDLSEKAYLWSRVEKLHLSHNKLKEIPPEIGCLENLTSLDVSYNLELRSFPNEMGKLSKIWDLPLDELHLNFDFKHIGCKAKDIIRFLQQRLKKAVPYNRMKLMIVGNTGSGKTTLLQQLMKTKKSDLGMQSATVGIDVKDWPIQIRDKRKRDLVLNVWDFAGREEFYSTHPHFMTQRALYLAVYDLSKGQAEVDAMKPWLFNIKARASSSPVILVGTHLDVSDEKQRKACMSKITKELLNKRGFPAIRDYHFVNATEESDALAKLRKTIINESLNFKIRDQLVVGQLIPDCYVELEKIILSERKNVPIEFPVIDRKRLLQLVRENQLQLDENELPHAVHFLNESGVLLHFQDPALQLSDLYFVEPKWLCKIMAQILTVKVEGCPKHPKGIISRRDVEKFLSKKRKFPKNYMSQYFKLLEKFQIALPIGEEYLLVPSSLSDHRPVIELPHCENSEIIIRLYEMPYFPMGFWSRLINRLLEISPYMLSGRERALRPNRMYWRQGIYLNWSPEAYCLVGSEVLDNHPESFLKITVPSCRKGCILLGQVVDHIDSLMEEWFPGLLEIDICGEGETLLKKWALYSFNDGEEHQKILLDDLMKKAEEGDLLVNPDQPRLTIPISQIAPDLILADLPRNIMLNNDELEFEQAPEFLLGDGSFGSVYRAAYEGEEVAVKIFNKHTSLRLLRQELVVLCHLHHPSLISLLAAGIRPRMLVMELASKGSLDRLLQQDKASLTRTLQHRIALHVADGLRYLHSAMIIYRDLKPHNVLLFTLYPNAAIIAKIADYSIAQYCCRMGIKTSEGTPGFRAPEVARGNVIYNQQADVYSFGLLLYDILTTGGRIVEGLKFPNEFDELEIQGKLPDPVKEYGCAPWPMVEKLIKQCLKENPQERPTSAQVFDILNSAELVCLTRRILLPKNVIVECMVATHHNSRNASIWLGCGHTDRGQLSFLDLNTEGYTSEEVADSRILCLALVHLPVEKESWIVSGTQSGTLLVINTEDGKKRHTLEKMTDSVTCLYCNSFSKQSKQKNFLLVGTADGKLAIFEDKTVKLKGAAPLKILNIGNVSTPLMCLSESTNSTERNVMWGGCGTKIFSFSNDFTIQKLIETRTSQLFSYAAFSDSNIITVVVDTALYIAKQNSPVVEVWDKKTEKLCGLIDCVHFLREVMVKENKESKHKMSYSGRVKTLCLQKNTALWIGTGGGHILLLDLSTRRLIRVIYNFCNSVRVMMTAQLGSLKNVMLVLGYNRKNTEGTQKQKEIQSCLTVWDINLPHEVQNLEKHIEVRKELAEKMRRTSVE
As to `CN1CCN(c2cc3cc(NC(=O)C4CC4)ncc3cc2Cl)CC1` [Ex-8.2], the “LRRK2 pIC50” value is 7.53.

On to `Cn1cc(C2CC2C(=O)Nc2cc3cc(N4CCC(F)(C#N)CC4)c(Cl)cc3cn2)cn1` (stereo not shown) [Ex-4.11], for which the “LRRK2 pIC50” value was found to be 7.39.

As to `Cc1cc2cnc(NC(=O)C3CC3c3ccccn3)cc2cc1N1CCN(C2(C)COCC2F)CC1` (stereo not shown) [Ex-9.19], the “LRRK2 pIC50” value came to 10.09.

Consider `CC1(N2CCN(c3cc4cc(NC(=O)C5CC56CC6)ncc4cc3Cl)CC2)COC1` (stereo not shown) [Ex-4.4], for which the “LRRK2 pIC50” value was 7.85.

Still in this experiment, the particulars now being: 134 μM ATP (Km ATP), LRRKtide substrate, mean of several tests, read-out: LRRK2 pIC50 (converted).
As for `Cc1cc2cnc(NC(=O)C3CC3c3ccccn3)cc2cc1N1CCN(C2(C)CCOC2)CC1` (single isomer, unassigned) [Ex-9.16], the IC50 was 1.12 nM.

Turning to `CCC1C(C(=O)Nc2cc3cc(N4CCN(C5(C)COCC5F)CC4)c(Cl)cc3cn2)C1c1ccn(C)n1` (single isomer, unassigned) [Ex-10.49, (1R,2R,3R, 1R,2S,3R, or 1S,2R,3S, or 1S,2S,3S)-N-[7-chloro-6-[4-((3R,4R or 3S,4S)-4-fluoro-3-methyl-tetrahydrofuran-3-yl)piperazin-1-yl]-3-isoquinolyl]-2-ethyl-3-(1-methylpyrazol-3-yl)cyclopropanecarboxamide], the IC50 was 0.0813 nM.

Regarding `CCOC1CC2(C1)CC2C(=O)Nc1cc2cc(N3CCN(C4(C)COCC4F)CC3)c(Cl)cc2cn1` (single isomer, unassigned) [Ex-10.24, (1R,2R or 1S,2S)-N-[7-chloro-6-[4-((3R,4R or 3S,4S)-4-fluoro-3-methyl-tetrahydrofuran-3-yl)piperazin-1-yl]-3-isoquinolyl]-5-ethoxy-spiro[2.3]hexane-2-carboxamide], the IC50 is 0.0813 nM.

As for `COC1COCC1N1CCN(c2cc3cc(NC(=O)C4CC45CCOCC5)ncc3cc2Cl)CC1` (single isomer, unassigned) [Ex-5.7], the IC50 is 2.63 nM.

Take `Cn1ncc(C2CC2C(=O)Nc2cc3cc(N4CCN(C5(C)COCC5O)CC4)c(Cl)cc3cn2)n1` (single isomer, unassigned) [Ex-16.1, (1S,2R or 1S,2S)-N-(N-(7-chloro-6-(4-(4-hydroxy-3-methyltetrahydrofuran-3-yl)piperazin-1-yl)isoquinolin-3-yl)-2-(2-methyl-2H-1,2,3-triazol-4-yl)cyclopropane-1-carboxamide]: the IC50 is 0.145 nM.

Turning to `CC1(C)CC2(CCO1)CC2C(=O)Nc1cc2cc(N3CCN(C4(C)COCC4O)CC3)c(Cl)cc2cn1` (single isomer, unassigned) [Ex-7.5], the IC50 is 0.155 nM.

As to `CC1(N2CCN(c3cc4cc(NC(=O)C5CC56CC6(F)F)ncc4cc3Cl)CC2)COCC1O` (single isomer, unassigned) [Ex-2.16, (1R,3R or 1S,3S)-N-(7-chloro-6-(4-((3R,4R or 3S,4S)-4-hydroxy-3-methyltetrahydrofuran-3-yl)piperazin-1-yl)isoquinolin-3-yl)-4,4-difluorospiro[2.2]pentane-1-carboxamide], the IC50 was 0.813 nM.

Regarding `CC1(N2CCN(c3cc4cc(NC(=O)C5CC5c5ccco5)ncc4cc3Cl)CC2)COCC1O` (single isomer, unassigned) [Ex-10.30, (1R,2R or 1S,2S)-N-[7-chloro-6-[4-((3R,4R or 3S,4S)-4-hydroxy-3-methyl-tetrahydrofuran-3-yl)piperazin-1-yl]-3-isoquinolyl]-2-(2-furyl)cyclopropanecarboxamide], the IC50 was 0.0813 nM.

For the compound `CCOC1CC1C(=O)Nc1cc2cc(N3CCN(C4(C)COCC4O)CC3)c(Cl)cc2cn1` (single isomer, unassigned) [Ex-10.12], the IC50 is 0.0832 nM.

Turning to `Cc1cc2cnc(NC(=O)C3C4CCOCC43)cc2cc1N1CCN(C2(C)CCOC2)CC1` (single isomer, unassigned) [Ex-10.47, (1S,6R,7R, 1R,6S,7R, or 1R, 6S,7S, or 1S,6S,7S)-N-(7-methyl-6-(4-((R or S)-3-methyltetrahydrofuran-3-yl)piperazin-1-yl)isoquinolin-3-yl)-3-oxabicyclo[4.1.0]heptane-7-carboxamide], the IC50 was 10.2 nM.

For `COC1COCC1N1CCN(c2cc3cc(NC(=O)C4CC45CCOCC5)ncc3cc2Cl)CC1` (single isomer, unassigned) [Ex-5.8], the IC50 was 191 nM.

Take `Cc1cc2cnc(NC(=O)C3CC3c3cnn(C)c3C(F)(F)F)cc2cc1N1CCN(C2(C)CCOC2)CC1` (single isomer, unassigned) [Ex-10.35, (1R,2R or 1S,2S)-N-[7-methyl-6-[4-((R or S)-3-methyltetrahydrofuran-3-yl)piperazin-1-yl]-3-isoquinolyl]-2-[1-methyl-5-(trifluoromethyl)pyrazol-4-yl]cyclopropanecarboxamide]: the IC50 was 1.7 nM.

Regarding `CC1(N2CCN(c3cc4cc(NC(=O)C5CC5)ncc4cc3Cl)CC2)COCC1O` (single isomer, unassigned) [Ex-1.1, (3R,4R or 3S,4S)-N-(7-chloro-6-(4-(4-hydroxy-3-methyltetrahydrofuran-3-yl)piperazin-1-yl)isoquinolin-3-yl)cyclopropanecarboxamide], the IC50 is […].

Regarding `CC1(C)CC2(CCO1)CC2C(=O)Nc1cc2cc(N3CCN(C4(C)COCC4O)CC3)c(Cl)cc2cn1` (single isomer, unassigned) [Ex-7.4], the IC50 is 0.776 nM.

With `CCC1C(C(=O)Nc2cc3cc(N4CCN(C5(C)CCOC5)CC4)c(Cl)cc3cn2)C1c1cnn(C)c1` (single isomer, unassigned) [Ex-9.11], the IC50 was 1.15 nM.

For the compound `CC1(N2CCN(c3cc4cc(NC(=O)C5CC56CCC(F)(F)CC6)ncc4cc3Cl)CC2)COCC1O` (single isomer, unassigned) [Ex-1.20, (1R or 1S)-N-(7-chloro-6-(4-((3R,4R or 3S,4S)-4-hydroxy-3-methyltetrahydrofuran-3-yl)piperazin-1-yl)isoquinolin-3-yl)-6,6-difluorospiro[2.5]octane-1-carboxamide], the IC50 is 63.1 nM.

In the case of `CCC1C(C(=O)Nc2cc3cc(N4CCN(C5(C)COCC5F)CC4)c(Cl)cc3cn2)C1c1ccn(C)n1` (single isomer, unassigned) [Ex-10.52, (1R,2R,3R, 1R,2S,3R, or 1S,2R,3S, or 1S,2S,3S)-N-[7-chloro-6-[4-((3R,4R or 3S,4S)-4-fluoro-3-methyl-tetrahydrofuran-3-yl)piperazin-1-yl]-3-isoquinolyl]-2-ethyl-3-(1-methylpyrazol-3-yl)cyclopropanecarboxamide], the IC50 is 0.603 nM.

In the case of `C[C@H]1CN(c2cc3cc(NC(=O)C4CC45CCOCC5)ncc3cc2Cl)CCN1C1(C)COCC1O` (single isomer, unassigned) [Ex-2.20, (R or S)-N-(7-chloro-6-((S or R)-4-((3R,4R, or 3S,4S)-4-hydroxy-3-methyltetrahydrofuran-3-yl)-3-methylpiperazin-1-yl)isoquinolin-3-yl)-6-oxaspiro[2.5]octane-1-carboxamide], the IC50 is 0.178 nM.

As for `CC1(O)CCN(c2cc3cc(NC(=O)C4CC4)ncc3cc2Cl)CC1` [Ex-4.2], the IC50 was 10.5 nM.

Take `C[C@H]1CN(C2(C)COCC2O)CCN1c1cc2cc(NC(=O)C3CC34CCOCC4)ncc2cc1Cl` (single isomer, unassigned) [Ex-14.2, N-(7-chloro-6-((2R or 2S)-4-(4-(3R,4R or 3S,4S)-hydroxy-3-methyltetrahydrofuran-3-yl)-2-methylpiperazin-1-yl)isoquinolin-3-yl)-6-oxaspiro[2.5]octane-1-carboxamide]: the IC50 was 0.0813 nM.

With `CC1(N2CCN(c3cc4cc(NC(=O)C5CC56CCOC6)ncc4cc3Cl)CC2)COCC1O` (single isomer, unassigned) [Ex-2.9, (1R,3R or 1S,3S)-N-(7-chloro-6-(4-((3R,4R or 3S,4S)-4-hydroxy-3-methyltetrahydrofuran-3-yl)piperazin-1-yl)isoquinolin-3-yl)-5-oxaspiro[2.4]heptane-1-carboxamide], the IC50 is 0.195 nM.

The record behind these values is patent US12516039B2, “N-linked isoquinoline amides as LRRK2 inhibitors, pharmaceutical compositions, and uses thereof” (Merck Sharp & Dohme LLC, priority 2020, dated 2026).
